Data on 22 molecules can be found in patent US20250353848A1, “HETEROCYCLIC PAD4 INHIBITORS” (Celgene Corporation, priority 2022, published 2025).

Structures are written as SMILES.

The term IC50 denotes the point on the concentration scale where inhibition reaches its midpoint.

Sequence of hPAD4 enzyme (Q9UM07 whole entry): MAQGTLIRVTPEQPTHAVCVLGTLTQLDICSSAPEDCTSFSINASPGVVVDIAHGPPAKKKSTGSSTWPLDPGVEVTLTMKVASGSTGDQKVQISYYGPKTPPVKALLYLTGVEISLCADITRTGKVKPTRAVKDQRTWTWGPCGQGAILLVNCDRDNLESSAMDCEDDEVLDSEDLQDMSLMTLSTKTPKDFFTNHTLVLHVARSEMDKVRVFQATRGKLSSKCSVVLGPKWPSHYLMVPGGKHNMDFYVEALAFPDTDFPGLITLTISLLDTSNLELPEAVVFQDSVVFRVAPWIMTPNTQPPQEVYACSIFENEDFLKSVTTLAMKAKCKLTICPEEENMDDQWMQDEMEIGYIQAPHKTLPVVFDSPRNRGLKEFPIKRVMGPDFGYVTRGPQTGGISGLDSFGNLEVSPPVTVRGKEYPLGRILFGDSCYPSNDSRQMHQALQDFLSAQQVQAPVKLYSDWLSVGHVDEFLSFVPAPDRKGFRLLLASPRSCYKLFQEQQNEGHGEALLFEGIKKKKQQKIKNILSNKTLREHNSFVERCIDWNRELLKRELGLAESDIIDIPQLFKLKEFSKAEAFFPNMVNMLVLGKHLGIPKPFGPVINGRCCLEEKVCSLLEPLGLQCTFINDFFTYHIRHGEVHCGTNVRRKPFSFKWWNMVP

The assay has as its target hPAD4 enzyme (Homo sapiens, UniProt Q9UM07). The assay can be described thus: RFMS Assay 1 (rapid-fire mass spectrum PAD4 inhibition assay, BAEE substrate). Conditions: 5 nM hPAD4 enzyme, 250 μM BAEE, 30 mins compound and enzyme preincubation at 37° C., 90 min enzyme/substrate reaction. Type of assay: biochemical. Here is the method:
Compounds were solubilized in 100% DMSO to achieve a 10 mM compound concentration. Compound stock solutions were stored at RT. A series of dilutions were prepared in DMSO and mixed 8 times with 20 μL mixing volume. Final top concentration of compound in the assay is 50 μM. Final assay conditions were as follows: • Reaction volume: 26 μl • Assay buffer: 25 mM hepes, pH 7.5, 5 mM NaCl, 1 mM DTT, 0.2 mg/ml BSA, 0.01% CHAPS, 50 μM Calcium, and 5 μM TPEN • Final concentrations: 5 nM hPAD4 enzyme, 250 μM BAEE, and 0.5% DMSO • Total incubation time: 30 mins compound and enzyme preincubation at 37° C., 90 min enzyme/substrate reaction, 30 min reaction with phenyl glyoxal at 37° C. • Stop solution: 40 μl 5% TCA in ACN
0.13 μL of compound solution was added to 13 μL of 10 nM PAD4 in assay buffer. After 30 min 13 μl of 500 μM of BAEE was added in 25 mM hepes, pH 7.5, 5 mM NaCl, 1 mM DTT, 0.2 mg/ml BSA, 0.01% CHAPS, 50 µM Calcium, […] was added and the reaction incubated for 90 min at 37° C. The enzymatic reaction was quenched by addition of 15 μl of 6.1N TCA, 100% Final Concentration is 20%, 35 μl of 8.5 mM phenyl glyoxal (final concentration 4 mM) is then added and the reaction is incubated for 30 min at 37° C.
After 30 minutes the plates are spun down to remove all precipitate. The enzyme reaction was quenched with an equal volume of methanol containing internal standard (modified citrulline). Samples were loaded onto the Rapid Fire RF300 system (Agilent) wherein they were first sipped for 1000 ms and then directly loaded to a C18 separations cartridge using a mixture of acetonitrile containing 0.01% formic acid for 3000 ms desalting. The flow rate of the mobile phase was 1.5 ml/min. Once the samples were eluted from the cartridge, a mobile phase of acetonitrile containing 0.01% formic acid was used to move the samples into the mass spectrometer for 4000 ms at a flow rate of 1.25 ml/min/Sciex AP15500 triple quadrupole mass spectrometer (Applied Biosystems) equipped with ESI was used to analyze the peptidyl citrulline and internal standard ions.
MRM transition of product and internal standard were monitored at m/z 424.5 to 350.4 and m/z 293 to 247 respectively. The dwell time for each transition was set at 200 ms, and the ESI voltage was used at 5500 with a source temperature of 400° C. Extracted ion peaks for each transition were integrated using the Rapid Fire Integrator software. Peak area of analyte was normalized with internal standard.).
`CC(=O)N1CCC(c2cccc3cc(-c4nc5cc6c(nc5n4C)CCN(C[C@H](N)CF)C6=O)n(CC4CC4)c23)CC1` [Example 29, (S)-2-(7-(1-acetylpiperidin-4-yl)-1-(cyclopropylmethyl)-1H-indol-2-yl)-7-(2-amino-3-fluoropropyl)-3-methyl-3,5,6,7-tetrahydro-8H-imidazo[4,5-b][1,6]naphthyridin-8-one] displayed an IC50 of 101 to 500 nM.
Under `Cn1c(-c2cc3cccc(OCC(F)n4ccnc4)c3n2CC2CC2)nc2cc3c(nc21)CCN(C[C@H](N)CF)C3=O` (single isomer, unassigned) [Example 79a] stands 11 to 100 nM.
Under `Cn1c(-c2cc3cccc(OCCn4ccnc4C#N)c3n2CC2CC2)nc2cc3c(nc21)CCN(C[C@H](N)CF)C3=O` [Example 89, (S)-1-(2-((2-(7-(2-amino-3-fluoropropyl)-3-methyl-8-oxo-5,6,7,8-tetrahydro-3H-imidazo[4,5-b][1,6]naphthyridin-2-yl)-1-(cyclopropylmethyl)-1H-indol-7-yl)oxy)ethyl)-1H-imidazole-2-carbonitrile] stands 101 to 500 nM; under `COC(=O)N1CC[C@@H](Oc2cccc3cc(-c4nc5cc6c(nc5n4C)CCN(C[C@H](N)CF)C6=O)n(CC4CC4)c23)C1` [Example 40, methyl (R)-3-((2-(7-((S)-2-amino-3-fluoropropyl)-3-methyl-8-oxo-5,6,7,8-tetrahydro-3H-imidazo[4,5-b][1,6]naphthyridin-2-yl)-1-(cyclopropylmethyl)-1H-indol-7-yl)oxy)pyrrolidine-1-carboxylate], 11 to 100 nM; under `CO[C@H](C)C(=O)N1CCC(c2cccc3cc(-c4nc5cc6c(nc5n4C)CCN(C[C@H](N)CF)C6=O)n(CC4CC4)c23)CC1` [Example 31, 7-((S)-2-amino-3-fluoropropyl)-2-(1-(cyclopropylmethyl)-7-(1-((R)-2-methoxypropanoyl)piperidin-4-yl)-1H-indol-2-yl)-3-methyl-3,5,6,7-tetrahydro-8H-imidazo[4,5-b][1,6]naphthyridin-8-one], 11 to 100 nM.
The figure for `C[C@H](COc1cccc2cc(-c3nc4cc5c(nc4n3C)CCN(C[C@H](N)CF)C5=O)n(CC3CC3)c12)n1cnc(C#N)c1` [Example 91, 1-((R)-1-((2-(7-((S)-2-amino-3-fluoropropyl)-3-methyl-8-oxo-5,6,7,8-tetrahydro-3H-imidazo[4,5-b][1,6]naphthyridin-2-yl)-1-(cyclopropylmethyl)-1H-indol-7-yl)oxy)propan-2-yl)-1H-imidazole-4-carbonitrile] is 101 to 500 nM.
Consider `C[C@H](Cn1cncc1F)Oc1cccc2cc(-c3nc4cc5c(nc4n3C)CCN(C[C@H](N)CF)C5=O)n(CC3CC3)c12` [Example 69, 7-((S)-2-amino-3-fluoropropyl)-2-(1-(cyclopropylmethyl)-7-(((R)-1-(5-fluoro-1H-imidazol-1-yl)propan-2-yl)oxy)-1H-indol-2-yl)-3-methyl-3,5,6,7-tetrahydro-8H-imidazo[4,5-b][1,6]naphthyridin-8-one], for which the IC50 lay in the range of 11 to 100 nM.
The figure for `Cn1c(-c2cc3cccc(OCCc4ccccn4)c3n2CC2CC2)nc2cc3c(nc21)CCN(C[C@H](N)CF)C3=O` [Example 58, (S)-7-(2-amino-3-fluoropropyl)-2-(1-(cyclopropylmethyl)-7-(2-(pyridin-2-yl)ethoxy)-1H-indol-2-yl)-3-methyl-3,5,6,7-tetrahydro-8H-imidazo[4,5-b][1,6]naphthyridin-8-one] is 101 to 500 nM; for `COCCn1c(-c2nc3cc4c(nc3n2C)CCN(C[C@H](N)CF)C4=O)cc2cccc(OC(F)Cn3ccnc3)c21` (single isomer, unassigned) [Example 77b] it is 11 to 100 nM.
Under `CC(C(F)Oc1cccc2cc(-c3nc4cc5c(nc4n3C)CCN(C[C@H](N)CF)C5=O)n(CC3CC3)c12)n1ccnc1` (single isomer, unassigned) [Example 78b] stands ≤ 10 nM; under `C[C@@H](Cn1cncc1F)Oc1cccc2cc(-c3nc4cc5c(nc4n3C)CCN(C[C@H](N)CF)C5=O)n(CC3CC3)c12` [Example 68, 7-((S)-2-amino-3-fluoropropyl)-2-(1-(cyclopropylmethyl)-7-(((S)-1-(5-fluoro-1H-imidazol-1-yl)propan-2-yl)oxy)-1H-indol-2-yl)-3-methyl-3,5,6,7-tetrahydro-8H-imidazo[4,5-b][1,6]naphthyridin-8-one], 101 to 500 nM; under `Cn1c(-c2cc3cccc(OC(F)Cn4cnc(F)c4)c3n2CC2CC2)nc2cc3c(nc21)CCN(C[C@H](N)CF)C3=O` (single isomer, unassigned) [Example 73a], ≤ 10 nM.
Under `CC(C(F)Oc1cccc2cc(-c3nc4cc5c(nc4n3C)CCN(C[C@H](N)CF)C5=O)n(CC3CC3)c12)n1ccnc1` (single isomer, unassigned) [Example 78c] stands 11 to 100 nM.
In the case of `C[C@H](Cn1cnc(F)c1)Oc1cccc2cc(-c3nc4cc5c(nc4n3C)CCN(C[C@H](N)CF)C5=O)n(CC3CC3)c12` [Example 67, 7-((S)-2-amino-3-fluoropropyl)-2-(1-(cyclopropylmethyl)-7-(((R)-1-(4-fluoro-1H-imidazol-1-yl)propan-2-yl)oxy)-1H-indol-2-yl)-3-methyl-3,5,6,7-tetrahydro-8H-imidazo[4,5-b][1,6]naphthyridin-8-one], the IC50 is ≤ 10 nM.
For the molecule `COc1cccc2cc(-c3nc4cc5c(nc4n3C)CCN(C[C@H](N)CF)C5=O)n(CC3CC3(F)F)c12` (stereo partly drawn) [Example 4, 7-((S)-2-amino-3-fluoropropyl)-2-(1-((2,2-difluorocyclopropyl)methyl)-7-methoxy-1H-indol-2-yl)-3-methyl-3,5,6,7-tetrahydro-8H-imidazo[4,5-b][1,6]naphthyridin-8-one], the 50% inhibitory concentration (IC50) lay in the range of 101 to 500 nM.
Under `[2H]c1nc([2H])n(CCOc2cccc3cc(-c4nc5cc6c(nc5n4C)CCN(C[C@H](N)CF)C6=O)n(CC4CC4)c23)c1[2H]` [Example 90, (S)-2-(7-(2-(1H-imidazol-1-yl-d3)ethoxy)-1-(cyclopropylmethyl)-1H-indol-2-yl)-7-(2-amino-3-fluoropropyl)-3-methyl-3,5,6,7-tetrahydro-8H-imidazo[4,5-b][1,6]naphthyridin-8-one] stands ≤ 10 nM.
Under `Cn1c(-c2cc3cccc(OC(F)Cn4cnc(F)c4)c3n2CC2CC2)nc2cc3c(nc21)CCN(C[C@H](N)CF)C3=O` (single isomer, unassigned) [Example 73b] stands ≤ 10 nM; under `Cn1c(-c2cc3cccc(CCCn4cnc(F)c4)c3n2CC2CC2)nc2cc3c(nc21)CCN(C[C@H](N)CF)C3=O` [Example 99, (S)-7-(2-amino-3-fluoropropyl)-2-(1-(cyclopropylmethyl)-7-(3-(4-fluoro-1H-imidazol-1-yl)propyl)-1H-indol-2-yl)-3-methyl-3,5,6,7-tetrahydro-8H-imidazo[4,5-b][1,6]naphthyridin-8-one], 11 to 100 nM.
For `CN1C[C@H](COc2cccc3cc(-c4nc5cc6c(nc5n4C)CCN(C[C@H](N)CF)C6=O)n(CC4CC4)c23)CS1(=O)=O` [Example 53, 7-((S)-2-amino-3-fluoropropyl)-2-(1-(cyclopropylmethyl)-7-(((R)-2-methyl-1,1-dioxidoisothiazolidin-4-yl)methoxy)-1H-indol-2-yl)-3-methyl-3,5,6,7-tetrahydro-8H-imidazo[4,5-b][1,6]naphthyridin-8-one], the IC50 lay within 101 to 500 nM.
The figure for `C[C@H](O)C(=O)N1CCC(c2cccc3cc(-c4nc5cc6c(nc5n4C)CCN(C[C@H](N)CF)C6=O)n(CC4CC4)c23)CC1` [Example 32, 7-((S)-2-amino-3-fluoropropyl)-2-(1-(cyclopropylmethyl)-7-(1-((S)-2-hydroxypropanoyl)piperidin-4-yl)-1H-indol-2-yl)-3-methyl-3,5,6,7-tetrahydro-8H-imidazo[4,5-b][1,6]naphthyridin-8-one] is 101 to 500 nM; for `Cn1c(-c2cc3cccc(OC[C@H]4CNS(=O)(=O)C4)c3n2CC2CC2)nc2cc3c(nc21)CCN(C[C@H](N)CF)C3=O` [Example 52, 7-((S)-2-amino-3-fluoropropyl)-2-(1-(cyclopropylmethyl)-7-(((R)-1,1-dioxidoisothiazolidin-4-yl)methoxy)-1H-indol-2-yl)-3-methyl-3,5,6,7-tetrahydro-8H-imidazo[4,5-b][1,6]naphthyridin-8-one] it is 11 to 100 nM.
Under `CC(C(F)Oc1cccc2cc(-c3nc4cc5c(nc4n3C)CCN(C[C@H](N)CF)C5=O)n(CC3CC3)c12)n1ccnc1` (single isomer, unassigned) [Example 78d] stands 11 to 100 nM.
